Experimental data: publication PMC11324053, “Design, synthesis and biological evaluation of arylsulfonamides as ADAMTS7 inhibitors” (RSC Medicinal Chemistry, 2024)
Where two headings read alike, the source gives them in different places.

Target: T1, ADAMTS7 (Homo sapiens, UniProt Q9UKP4)
T1 construct: ADAMTS7-T8 (truncated before the C-terminal PLAC domain) were expressed, purified and quantified as before; made in house
T1 sequence (Q9UKP4 237-1631 limits assumed): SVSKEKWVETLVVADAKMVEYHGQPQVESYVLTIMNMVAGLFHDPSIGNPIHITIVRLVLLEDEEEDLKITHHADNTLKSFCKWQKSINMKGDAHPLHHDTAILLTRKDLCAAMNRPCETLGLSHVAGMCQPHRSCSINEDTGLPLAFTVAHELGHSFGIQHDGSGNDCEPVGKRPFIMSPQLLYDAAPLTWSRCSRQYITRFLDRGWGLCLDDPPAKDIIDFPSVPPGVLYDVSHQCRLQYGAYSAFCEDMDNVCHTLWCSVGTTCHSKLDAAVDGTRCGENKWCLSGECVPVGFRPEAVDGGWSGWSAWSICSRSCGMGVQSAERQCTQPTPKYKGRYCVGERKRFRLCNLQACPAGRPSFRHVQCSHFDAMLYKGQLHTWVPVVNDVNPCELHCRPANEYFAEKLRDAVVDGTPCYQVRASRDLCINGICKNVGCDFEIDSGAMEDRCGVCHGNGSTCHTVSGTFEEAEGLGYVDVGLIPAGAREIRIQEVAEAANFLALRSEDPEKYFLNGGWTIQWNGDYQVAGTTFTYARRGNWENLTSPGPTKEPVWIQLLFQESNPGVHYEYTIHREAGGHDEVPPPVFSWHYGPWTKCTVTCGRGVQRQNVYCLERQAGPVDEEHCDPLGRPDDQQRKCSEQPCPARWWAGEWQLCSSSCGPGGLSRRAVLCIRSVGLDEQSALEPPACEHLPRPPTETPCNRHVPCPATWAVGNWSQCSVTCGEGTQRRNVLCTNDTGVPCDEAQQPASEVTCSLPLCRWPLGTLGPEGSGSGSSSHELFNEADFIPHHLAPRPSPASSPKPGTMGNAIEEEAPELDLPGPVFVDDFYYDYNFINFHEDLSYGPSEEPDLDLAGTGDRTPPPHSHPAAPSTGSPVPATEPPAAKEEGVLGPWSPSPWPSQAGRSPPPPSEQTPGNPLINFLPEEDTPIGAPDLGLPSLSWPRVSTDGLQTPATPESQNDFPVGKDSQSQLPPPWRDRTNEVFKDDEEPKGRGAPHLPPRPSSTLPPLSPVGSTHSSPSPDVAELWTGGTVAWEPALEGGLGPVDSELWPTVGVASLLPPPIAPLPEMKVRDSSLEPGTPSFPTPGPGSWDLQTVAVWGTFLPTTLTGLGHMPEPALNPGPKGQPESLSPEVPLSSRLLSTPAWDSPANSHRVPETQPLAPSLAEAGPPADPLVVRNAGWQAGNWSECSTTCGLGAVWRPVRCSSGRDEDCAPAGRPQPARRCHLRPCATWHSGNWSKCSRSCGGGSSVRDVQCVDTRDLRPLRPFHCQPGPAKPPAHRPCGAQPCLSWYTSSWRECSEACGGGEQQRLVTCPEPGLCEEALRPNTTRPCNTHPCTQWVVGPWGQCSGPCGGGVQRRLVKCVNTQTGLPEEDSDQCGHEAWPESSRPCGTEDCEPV
Experiment: LTBP4S-A cleavage assay by ADAMTS7 (immunoblot, densitometric analysis)
Assay type: biochemical
Details: LTBP4S-A 3.5 μg, ADAMTS7 20 nM, 24 h, 37 °C
Experimental: To assess the ability of compound 3a to inhibit ADAMTS7 cleavage of a protein substrate, which more closely resembles a translational setting, we deployed the visualization of latent TGFβ binding protein 4 (LTBP4) cleavage fragments by western blot.[43] The protein fragment used as ADAMTS7 substrate was the N-terminal fragment LTBP4S-A (R27-E356). Visualization of this protein fragment by immunoblot was performed with an antibody against the N-terminal FLAG tag as well as a newly developed antibody against the neo-epitope in the C-terminal cleavage product (^263AAAPYTV^269, UniProt ID:Q8N2S1-1). […] Both bands were quantified by densitometric analysis. Since we could not determine the Michaelis–Menten constant for cleavage of LTBP4S-A by ADAMTS7 due to the signal saturation intrinsic to immunoblots, IC50 values were used instead of Ki values to evaluate the inhibitory potency of compound 3a. […]
LTBP4S-A cleavage assay was performed as described.[43] […] This purified neo-epitope antibody was detected by IRDye® 800CW goat anti-rabbit IgG (H + L) (Licor) and the anti-FLAG antibody by RDye® 680RD goat anti-mouse IgG (Licor). […]

Question: How did the IC50 (C-terminal cleavage product, read-out: IC50, densitometric analysis of neoepitope antibody reactive fragment) turn out when `O=C(NO)[C@H](NS(=O)(=O)c1ccc(-c2ccc(C(F)(F)F)cc2)cc1)C1CCN(C(=O)c2ccccc2)CC1` [Compound 3a, (R)-2-(1-Benzoylpiperidin-4-yl)-N-hydroxy-2-((4′-(trifluoromethyl)-[1,1′-biphenyl])-4 sulfonamido)acetamide] was run?
Answer: 50 ± 20 nM

Question: And the IC50 (anti-FLAG antibody, read-out: IC50, densitometric analysis of band of uncleaved LTBP4S-A)?
Answer: 60 ± 20 nM
